{"source": "patent US6583309B1", "about": "(University of Medicine and Dentistry of New Jersey, priority 1999, dated 2003)"}
{"target": "TAR RNA", "assay": "not given", "settings": "TAT binding to TAR RNA, Dingwall et al. (1990); cited from earlier work", "units": {"Kd": "nM"}}
{"compound": "TAT: virally encoded HIV trans-acting regulatory protein that specifically recognizes TAR RNA", "Kd": 12}
{"test_system": "TAR-TAT complex formation in HL3T1 cells", "assay": "In vivo assay: inhibition of TAR-TAT complex formation in HL3T1 cells (HIV-1 LTR promoter, CAT reporter)", "format": "cell-based", "settings": "compounds of formula V transfected into HL3T1 cells with pSV2Tat and pAL, CAT and luciferase read after 48 hour, read-out: Kd (nM), binding constants", "method": "Binding of compounds of formula I and V to TAR RNA was measured by evaluating their inhibition of TAR-TAT complex formation in the presence of increasing levels of the compound to be tested. The compounds of formula I were tested in an in vitro assay; the compounds of formula V were tested in an in vivo assay.\nCells were grown in 2 mL of Dulbecco's modified Eagle medium (DMEM) supplemented with 10% fetal calf serum in 60 mm dishes at 37° C. in 5% CO2 in a tissue culture incubator. Cells were refreshed by 2 mL DMEM before transfection. Transfection was started by dropwise addition of 250 μL 2×HeBS (Hepes-buffered saline) and then keeping at room temperature for 10 minutes. Approximately 10 μg of plasmids (pSV2Tat and pAL) and increasing amounts of the Compounds DV, DW, DX or DY were transfected in the presence of CaCl2 (final concentration 125 mM) and the cells were incubated for 4 hour at 37° C. in a tissue culture incubator. The medium was then discarded and the cells were subjected to glycerol (1.5 mL of 15%) shock for 45 seconds. Finally the cells were washed twice with PBS (5 mL) and were grown in 3 mL DMEM. The cells were harvested after 48 hour post-transfection with changing with fresh DMEM at 24 hours and lysed in reporter lysis buffer (Promega). Aliquots were used for CAT and luciferase assays. Both activities were normalized to protein concentration determined by using a modified Bradford assay (Bio-Rad).", "units": {"Kd": "nM"}}
{"compound": "N=C(N)NCCC[C@@H](CNC(=O)N[C@@H](CCCCN)CNC(=O)N[C@H](CN)CCCNC(=N)N)NC(N)=O", "note": "[Compound DV, 1-{5-Amino-1-[3-(1-aminomethyl-4-guanidino-butyl)-ureidomethyl]-pentyl}-3-(5-guanidino-2-ureido-pentyl)-urea]", "Kd": 500}
{"compound": "N=C(N)NCCC[C@@H](CNC(=O)N[C@@H](CCCCN)CNC(=O)N[C@H](CN)CCCCN)NC(N)=O", "note": "[Compound DW, 1-{5-Amino-1-[3-(5-amino-1-aminomethyl-pentyl)-ureidomethyl]-pentyl}-3-(5-guanidino-2-ureido-pentyl)-urea]", "Kd": 50}
{"compound": "N=C(N)NCCC[C@@H](CNC(=O)N[C@@H](CCCCN)CNC(=O)NCCN)NC(N)=O", "note": "[Compound DY]", "Kd": 150}
{"compound": "N=C(N)NCCC[C@@H](CNC(=O)N[C@@H](CCCNC(=N)N)CNC(=O)N[C@H](CN)CCCCN)NC(N)=O", "Kd": 500}
{"target": "TAR RNA", "assay": "In vitro binding of resin-bound compounds to TAR RNA (OD260 of unbound RNA)", "design": "species or system HIV", "settings": "in vitro assay; compounds of formula I on TentaGel beads incubated with TAR RNA overnight at 4° C. in TK buffer; read-out: Kd (nM), binding constants", "in_short": "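Ten beads of TentaGel-bound compound in TK buffer were incubated overnight at 4 °C with T7-transcribed 29-residue TAR RNA ([…]). Unbound RNA in the supernatant was quantified by OD260. KD was calculated from equilibrium RNA concentrations assuming simple bimolecular binding.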", "units": {"Kd": "nM"}}
{"compound": "NCCCC[C@H](COC(N)=O)NC(=O)OC[C@H](CCCCN)NC(=O)OC[C@H](N)CCC(N)=O", "note": "[Compound AR, Carbamic acid 6-amino-2-[6-amino-2-(2-amino-4-carbamoyl-butoxycarbonylamino)-hexyloxycarbonylamino]-hexyl ester]", "Kd": 376}
{"compound": "NCCCC[C@H](N)COC(=O)N[C@@H](CCCCN)C(=O)N[C@H](CCCCN)COC(N)=O", "note": "(stereo in doubt) [Compound BT, Carbamic acid 6-amino-2-[6-amino-2-(2,6-diamino-hexyloxycarbonylamino)-hexanoylamino]-hexyl ester]", "Kd": 202}
{"compound": "NCCCCCCCNCC(=O)N(CCCCN)CC(=O)N[C@H](CCCCN)COC(N)=O", "note": "[Compound AX, Carbamic acid 6-amino-2-(2-{(4-amino-butyl)-[2-(7-amino-heptylamino)-acetyl]-amino}-acetylamino)-hexyl ester]", "Kd": 165}
{"compound": "NCCCCCCCNCC(=O)N(CCCCCCCN)CC(=O)N[C@H](CCCCN)COC(N)=O", "note": "[Compound BP, Carbamic acid 6-amino-2-(2-{(7-amino-heptyl)-[2-(7-amino-heptylamino)-acetyl]-amino}-acetylamino)-hexyl ester]", "Kd": 2190}
{"compound": "NCCCCCCCNCC(=O)N[C@@H](CCCCN)COC(=O)N[C@@H](CCCCN)COC(N)=O", "note": "[Compound CO, Carbamic acid 6-amino-2-{6-amino-2-[2-(7-amino-heptylamino)-acetylamino]-hexyloxycarbonylamino}-hexyl ester]", "Kd": 147}
{"compound": "NCCCCCNCC(=O)N(CCCCN)CC(=O)N[C@@H](CCCCN)COC(N)=O", "note": "[Compound CW]", "Kd": 3980}
{"compound": "NCCCCCCCN(CC(=O)N[C@@H](CCCCN)COC(N)=O)C(=O)[C@@H](N)CCCCN", "note": "[Compound DM, Carbamic acid 6-amino-2-{2-[(7-amino-heptyl)-(2,6-diamino-hexanoyl)-amino]-acetylamino}-hexyl ester]", "Kd": 256}
{"compound": "NCCCCNCC(=O)N(CCCCN)CC(=O)N[C@@H](CCCCN)COC(N)=O", "note": "[Compound CY, Carbamic acid 6-amino-2-(2-{(4-amino-butyl)-[2-(4-amino-butylamino)-acetyl]-amino}-acetylamino)-hexyl ester]", "Kd": 523}
{"compound": "NCCCCCCCN(CC(=O)N[C@H](CCCCN)COC(N)=O)C(=O)[C@@H](N)CCCCN", "note": "[Compound BM, Carbamic acid 6-amino-2-{2-[(7-amino-heptyl)-(2,6-diamino-hexanoyl)-amino]-acetylamino}-hexyl ester]", "Kd": 403}
{"compound": "NCCCCCN(CC(=O)N[C@@H](CCCCN)COC(N)=O)C(=O)[C@H](N)CCCCN", "note": "[Compound DE, Carbamic acid 6-amino-2-{2-[(5-amino-pentyl)-(2,6-diamino-hexanoyl)-amino]-acetylamino}-hexyl ester]", "Kd": 120}
{"compound": "N=C(N)NCCC[C@H](N)COC(=O)N[C@@H](CCCCN)COC(=O)N[C@@H](CCCCN)COC(N)=O", "note": "[Compound CQ, Carbamic acid 6-amino-2-[6-amino-2-(2-amino-5-guanidino-pentyloxycarbonylamino)-hexyloxycarbonylamino]-hexyl ester]", "Kd": 2350}
{"compound": "NCCCC[C@@H](N)COC(=O)N(CCCCN)CC(=O)N[C@H](CCCCN)COC(N)=O", "note": "[Compound AT, Carbamic acid 6-amino-2-{2-[(4-amino-butyl)-(2,6-diamino-hexyloxycarbonyl)-amino]-acetylamino}-hexyl ester]", "Kd": 165}
{"compound": "NCCCC[C@@H](N)COC(=O)N[C@@H](CCCCN)C(=O)N[C@H](CCCCN)COC(N)=O", "note": "[Compound BU, Carbamic acid 6-amino-2-[6-amino-2-(2,6-diamino-hexyloxycarbonylamino)-hexanoylamino]-hexyl ester]", "Kd": 1420}
{"compound": "NCCCC[C@H](COC(N)=O)NC(=O)OC[C@@H](CCCCN)NC(=O)[C@@H](N)CCCCN", "note": "[Compound AC, Carbamic acid 6-amino-2-[6-amino-2-(2,6-diamino-hexanoylamino)-hexyloxycarbonylamino]-hexyl ester]", "Kd": 215}
{"compound": "NCCCC[C@H](COC(N)=O)NC(=O)CN(CCCCN)C(=O)[C@H](N)CCCCN", "note": "[Compound AV, Carbamic acid 6-amino-2-{2-[(4-amino-butyl)-(2,6-diamino-hexanoyl)-amino]-acetylamino}-hexyl ester]", "Kd": 325}
{"compound": "NCCCCCCCNCC(=O)N[C@H](CCCCN)COC(=O)N[C@H](CCCCN)COC(N)=O", "note": "[Compound AF, Carbamic acid 6-amino-2-{6-amino-2-[2-(7-amino-heptylamino)-acetylamino]-hexyloxycarbonylamino}-hexyl ester]", "Kd": 491}
{"compound": "NCCCCCCCNCC(=O)N[C@H](CCCCN)COC(=O)N[C@@H](CCCCN)COC(N)=O", "note": "[Compound CF, Carbamic acid 6-amino-2-{6-amino-2-[2-(7-amino-heptylamino)-acetylamino]-hexyloxycarbonylamino}-hexyl ester]", "Kd": 567}
{"compound": "NCCCCCN(CC(=O)N[C@H](CCCCN)COC(N)=O)C(=O)[C@H](N)CCCCN", "note": "[Compound BE, Carbamic acid 6-amino-2-{2-[(5-amino-pentyl)-(2,6-diamino-hexanoyl)-amino]-acetylamino}-hexyl ester]", "Kd": 678}
{"compound": "NCCCCCCCN(CC(=O)N[C@H](CCCCN)COC(N)=O)C(=O)CNCCCCCN", "note": "[Compound BO, Carbamic acid 6-amino-2-(2-{(7-amino-heptyl)-[2-(5-amino-pentylamino)-acetyl]-amino}-acetylamino)-hexyl ester]", "Kd": 183}
